Assay results: ChEMBL document CHEMBL5291721, “A preclinical secondary pharmacology resource illuminates target-adverse drug reaction associations of marketed drugs” (Nat Commun, 2023)

Columns and labels:
[1] = target: T1, Alpha-1A adrenergic receptor (Homo sapiens, UniProt P35348); format: functional, cell-based
T1 sequence (P35348 whole entry): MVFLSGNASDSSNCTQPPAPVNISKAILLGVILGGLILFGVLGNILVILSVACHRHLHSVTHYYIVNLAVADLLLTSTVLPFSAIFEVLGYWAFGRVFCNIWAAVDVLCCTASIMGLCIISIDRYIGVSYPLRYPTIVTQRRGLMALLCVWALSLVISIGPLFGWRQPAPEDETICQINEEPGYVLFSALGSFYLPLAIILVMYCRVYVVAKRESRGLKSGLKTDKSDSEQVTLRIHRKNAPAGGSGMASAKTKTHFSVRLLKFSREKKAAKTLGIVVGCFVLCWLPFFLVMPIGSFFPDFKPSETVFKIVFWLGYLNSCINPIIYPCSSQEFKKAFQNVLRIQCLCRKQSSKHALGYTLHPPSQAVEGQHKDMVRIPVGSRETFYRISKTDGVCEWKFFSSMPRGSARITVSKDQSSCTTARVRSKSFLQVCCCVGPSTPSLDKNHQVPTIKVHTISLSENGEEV

[2] = target: T2, Alpha-2A adrenergic receptor (Homo sapiens, UniProt P08913)
T2 sequence (P08913 whole entry): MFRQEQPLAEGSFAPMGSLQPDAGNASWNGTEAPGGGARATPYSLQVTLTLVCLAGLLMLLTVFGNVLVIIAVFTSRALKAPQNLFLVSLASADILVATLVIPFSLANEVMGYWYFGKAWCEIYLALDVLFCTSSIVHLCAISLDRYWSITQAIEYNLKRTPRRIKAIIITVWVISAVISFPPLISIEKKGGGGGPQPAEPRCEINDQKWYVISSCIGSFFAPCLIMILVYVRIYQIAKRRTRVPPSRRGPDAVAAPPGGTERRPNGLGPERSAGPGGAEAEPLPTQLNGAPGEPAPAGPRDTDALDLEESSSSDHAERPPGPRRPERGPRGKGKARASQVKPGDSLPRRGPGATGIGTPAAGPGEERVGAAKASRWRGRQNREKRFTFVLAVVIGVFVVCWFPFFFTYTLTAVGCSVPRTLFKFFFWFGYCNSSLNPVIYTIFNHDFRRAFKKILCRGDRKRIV

[3] = target: T3, Muscarinic acetylcholine receptor M2 (Homo sapiens, UniProt P08172)
T3 sequence (P08172 whole entry): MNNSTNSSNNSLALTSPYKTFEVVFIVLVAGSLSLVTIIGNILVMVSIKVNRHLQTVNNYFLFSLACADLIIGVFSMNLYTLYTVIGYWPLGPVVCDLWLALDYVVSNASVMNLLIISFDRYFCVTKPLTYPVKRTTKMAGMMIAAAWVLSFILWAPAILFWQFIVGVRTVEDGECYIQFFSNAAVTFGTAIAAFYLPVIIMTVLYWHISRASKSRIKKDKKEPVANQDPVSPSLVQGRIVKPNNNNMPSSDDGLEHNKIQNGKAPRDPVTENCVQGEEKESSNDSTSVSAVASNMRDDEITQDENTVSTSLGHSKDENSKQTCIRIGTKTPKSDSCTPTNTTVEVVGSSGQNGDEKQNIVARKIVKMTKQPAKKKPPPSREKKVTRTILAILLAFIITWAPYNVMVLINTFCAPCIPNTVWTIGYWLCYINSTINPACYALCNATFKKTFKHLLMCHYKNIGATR

[4] = target: Voltage-gated inwardly rectifying potassium channel KCNH2 (Homo sapiens, UniProt Q12809); format: functional; conditions: read-out: AC50
Sequence of Voltage-gated inwardly rectifying potassium channel KCNH2 (Q12809 whole entry): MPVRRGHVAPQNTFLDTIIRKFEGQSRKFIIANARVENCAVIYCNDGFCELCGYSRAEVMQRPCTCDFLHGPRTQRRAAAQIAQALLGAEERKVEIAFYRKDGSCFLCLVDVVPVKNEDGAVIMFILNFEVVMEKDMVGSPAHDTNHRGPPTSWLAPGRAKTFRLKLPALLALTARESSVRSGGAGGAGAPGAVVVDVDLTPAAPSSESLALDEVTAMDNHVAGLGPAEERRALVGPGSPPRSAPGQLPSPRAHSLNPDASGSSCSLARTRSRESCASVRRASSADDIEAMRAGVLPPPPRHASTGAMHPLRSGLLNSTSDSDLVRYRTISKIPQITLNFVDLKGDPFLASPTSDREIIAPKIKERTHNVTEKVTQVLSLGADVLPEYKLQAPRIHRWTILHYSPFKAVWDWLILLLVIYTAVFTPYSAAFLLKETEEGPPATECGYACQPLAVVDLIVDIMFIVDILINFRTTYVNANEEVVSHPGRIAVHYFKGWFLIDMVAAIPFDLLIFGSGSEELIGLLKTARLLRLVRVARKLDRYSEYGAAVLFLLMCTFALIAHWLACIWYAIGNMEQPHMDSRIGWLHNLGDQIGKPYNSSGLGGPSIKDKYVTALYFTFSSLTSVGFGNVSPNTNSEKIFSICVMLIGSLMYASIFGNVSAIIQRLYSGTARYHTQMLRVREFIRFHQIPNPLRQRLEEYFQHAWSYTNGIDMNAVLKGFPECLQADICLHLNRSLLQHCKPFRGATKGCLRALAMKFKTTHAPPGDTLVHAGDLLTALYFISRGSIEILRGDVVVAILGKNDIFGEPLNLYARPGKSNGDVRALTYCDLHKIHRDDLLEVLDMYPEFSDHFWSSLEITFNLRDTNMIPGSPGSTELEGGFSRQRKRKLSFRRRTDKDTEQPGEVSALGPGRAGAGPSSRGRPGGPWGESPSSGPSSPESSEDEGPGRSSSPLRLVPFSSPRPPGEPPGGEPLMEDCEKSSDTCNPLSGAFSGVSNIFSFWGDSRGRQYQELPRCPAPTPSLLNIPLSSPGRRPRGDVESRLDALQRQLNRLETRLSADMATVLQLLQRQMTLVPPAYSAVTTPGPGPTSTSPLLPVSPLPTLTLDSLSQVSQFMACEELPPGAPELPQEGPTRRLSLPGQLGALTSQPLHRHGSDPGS

[5] = target: Vascular endothelial growth factor receptor 2 (Homo sapiens, UniProt P35968); format: functional
Sequence of Vascular endothelial growth factor receptor 2 (P35968 whole entry): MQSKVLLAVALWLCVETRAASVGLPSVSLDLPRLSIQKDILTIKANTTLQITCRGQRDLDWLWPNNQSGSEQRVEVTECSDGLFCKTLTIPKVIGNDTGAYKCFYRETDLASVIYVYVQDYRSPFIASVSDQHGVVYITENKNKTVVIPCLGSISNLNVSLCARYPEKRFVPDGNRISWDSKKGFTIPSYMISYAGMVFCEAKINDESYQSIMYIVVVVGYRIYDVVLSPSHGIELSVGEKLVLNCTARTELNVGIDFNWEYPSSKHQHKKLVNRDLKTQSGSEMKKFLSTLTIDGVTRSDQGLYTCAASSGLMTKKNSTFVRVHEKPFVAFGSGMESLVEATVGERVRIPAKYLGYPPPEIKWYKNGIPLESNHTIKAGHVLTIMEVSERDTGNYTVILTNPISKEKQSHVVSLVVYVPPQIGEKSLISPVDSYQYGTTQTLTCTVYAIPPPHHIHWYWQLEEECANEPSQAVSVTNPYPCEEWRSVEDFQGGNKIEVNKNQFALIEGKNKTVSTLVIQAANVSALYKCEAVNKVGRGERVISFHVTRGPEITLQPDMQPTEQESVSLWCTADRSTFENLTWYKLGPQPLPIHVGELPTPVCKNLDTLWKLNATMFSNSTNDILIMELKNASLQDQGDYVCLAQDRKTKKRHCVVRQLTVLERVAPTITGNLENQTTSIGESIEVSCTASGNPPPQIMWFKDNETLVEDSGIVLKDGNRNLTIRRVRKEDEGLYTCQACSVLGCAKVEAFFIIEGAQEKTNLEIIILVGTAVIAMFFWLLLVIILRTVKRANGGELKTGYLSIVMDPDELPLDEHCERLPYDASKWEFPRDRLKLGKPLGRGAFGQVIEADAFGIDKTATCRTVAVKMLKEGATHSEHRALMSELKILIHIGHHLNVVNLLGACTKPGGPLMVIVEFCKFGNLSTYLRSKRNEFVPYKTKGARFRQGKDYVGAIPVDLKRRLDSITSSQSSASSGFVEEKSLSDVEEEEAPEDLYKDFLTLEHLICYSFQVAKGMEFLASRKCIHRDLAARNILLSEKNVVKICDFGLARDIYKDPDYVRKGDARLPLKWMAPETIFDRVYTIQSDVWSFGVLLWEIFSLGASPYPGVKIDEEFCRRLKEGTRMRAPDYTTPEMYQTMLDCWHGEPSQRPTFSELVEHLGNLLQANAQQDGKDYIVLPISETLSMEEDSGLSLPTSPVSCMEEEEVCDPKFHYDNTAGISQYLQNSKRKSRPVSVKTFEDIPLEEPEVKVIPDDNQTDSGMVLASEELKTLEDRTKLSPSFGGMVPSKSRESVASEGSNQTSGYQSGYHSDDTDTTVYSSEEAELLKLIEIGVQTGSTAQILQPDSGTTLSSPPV

[6] = target: T4, Amine oxidase [flavin-containing] A (Homo sapiens, UniProt P21397); format: functional
T4 sequence (P21397 whole entry): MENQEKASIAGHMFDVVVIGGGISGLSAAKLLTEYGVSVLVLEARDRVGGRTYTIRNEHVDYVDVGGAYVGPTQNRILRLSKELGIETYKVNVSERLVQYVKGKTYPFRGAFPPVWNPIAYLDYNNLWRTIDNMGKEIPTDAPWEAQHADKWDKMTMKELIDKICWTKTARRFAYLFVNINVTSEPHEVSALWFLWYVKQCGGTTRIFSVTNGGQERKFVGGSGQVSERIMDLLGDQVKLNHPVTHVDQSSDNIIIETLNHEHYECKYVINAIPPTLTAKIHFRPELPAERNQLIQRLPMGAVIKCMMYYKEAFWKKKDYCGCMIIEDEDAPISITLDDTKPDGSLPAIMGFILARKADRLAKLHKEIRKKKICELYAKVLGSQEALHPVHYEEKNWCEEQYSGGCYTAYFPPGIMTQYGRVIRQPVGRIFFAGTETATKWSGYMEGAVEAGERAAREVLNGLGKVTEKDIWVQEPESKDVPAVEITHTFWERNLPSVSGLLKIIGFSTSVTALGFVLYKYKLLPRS

[7] = target: cGMP-inhibited 3',5'-cyclic phosphodiesterase 3A (Homo sapiens, UniProt Q14432); format: functional
Sequence of cGMP-inhibited 3',5'-cyclic phosphodiesterase 3A (Q14432 whole entry): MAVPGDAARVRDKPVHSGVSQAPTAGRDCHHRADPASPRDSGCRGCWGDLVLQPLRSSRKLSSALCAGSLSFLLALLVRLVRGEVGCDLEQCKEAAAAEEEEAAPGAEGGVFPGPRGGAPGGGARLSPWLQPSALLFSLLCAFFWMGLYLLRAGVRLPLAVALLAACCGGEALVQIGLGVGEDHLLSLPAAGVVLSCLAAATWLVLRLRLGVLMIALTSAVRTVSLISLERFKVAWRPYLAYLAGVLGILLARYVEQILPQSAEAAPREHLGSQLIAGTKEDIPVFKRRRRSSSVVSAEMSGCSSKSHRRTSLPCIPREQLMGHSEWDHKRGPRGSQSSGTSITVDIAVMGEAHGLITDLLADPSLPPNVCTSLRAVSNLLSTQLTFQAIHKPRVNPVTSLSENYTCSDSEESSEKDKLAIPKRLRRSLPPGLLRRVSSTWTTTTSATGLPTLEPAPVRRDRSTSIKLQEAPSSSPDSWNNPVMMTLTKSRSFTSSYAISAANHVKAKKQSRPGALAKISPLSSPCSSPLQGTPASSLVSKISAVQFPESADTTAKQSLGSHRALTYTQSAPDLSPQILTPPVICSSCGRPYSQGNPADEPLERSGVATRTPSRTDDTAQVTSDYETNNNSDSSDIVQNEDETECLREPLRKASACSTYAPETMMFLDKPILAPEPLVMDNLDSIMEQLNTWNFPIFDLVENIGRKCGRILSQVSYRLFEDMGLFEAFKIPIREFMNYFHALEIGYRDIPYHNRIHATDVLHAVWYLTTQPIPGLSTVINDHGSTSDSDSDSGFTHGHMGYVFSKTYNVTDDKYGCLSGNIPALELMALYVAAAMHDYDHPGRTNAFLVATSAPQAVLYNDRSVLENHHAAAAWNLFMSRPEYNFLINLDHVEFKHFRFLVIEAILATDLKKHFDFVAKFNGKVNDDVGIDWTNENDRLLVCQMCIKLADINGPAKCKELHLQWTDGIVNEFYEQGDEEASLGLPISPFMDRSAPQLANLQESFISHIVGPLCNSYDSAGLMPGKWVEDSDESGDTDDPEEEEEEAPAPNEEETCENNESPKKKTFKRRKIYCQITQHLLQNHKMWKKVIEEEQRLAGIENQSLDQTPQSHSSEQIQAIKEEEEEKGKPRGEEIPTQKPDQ

[8] = target: 3',5'-cyclic-AMP phosphodiesterase 4A (Homo sapiens, UniProt P27815); format: functional
[9] = target: Prostaglandin G/H synthase 1 (Homo sapiens, UniProt P23219); format: functional
Sequence of Prostaglandin G/H synthase 1 (P23219 whole entry): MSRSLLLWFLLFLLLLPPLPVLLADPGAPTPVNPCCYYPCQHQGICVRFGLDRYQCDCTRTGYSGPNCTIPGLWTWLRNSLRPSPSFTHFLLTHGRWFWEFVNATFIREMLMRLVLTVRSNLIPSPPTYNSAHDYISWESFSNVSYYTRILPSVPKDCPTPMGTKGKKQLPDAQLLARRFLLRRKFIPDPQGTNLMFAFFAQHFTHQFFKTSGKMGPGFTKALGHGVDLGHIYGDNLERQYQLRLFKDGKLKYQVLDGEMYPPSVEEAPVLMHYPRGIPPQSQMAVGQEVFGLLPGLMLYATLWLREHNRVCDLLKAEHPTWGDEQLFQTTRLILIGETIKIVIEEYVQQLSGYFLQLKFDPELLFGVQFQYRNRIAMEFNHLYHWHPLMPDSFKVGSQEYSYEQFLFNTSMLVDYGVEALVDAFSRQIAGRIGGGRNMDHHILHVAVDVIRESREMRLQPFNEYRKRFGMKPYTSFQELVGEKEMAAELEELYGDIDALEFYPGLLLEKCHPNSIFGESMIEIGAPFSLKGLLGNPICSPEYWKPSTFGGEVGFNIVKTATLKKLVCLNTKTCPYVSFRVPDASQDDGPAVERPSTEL

[10] = target: Sodium-dependent dopamine transporter (Homo sapiens, UniProt Q01959)
Sequence of Sodium-dependent dopamine transporter (Q01959 whole entry): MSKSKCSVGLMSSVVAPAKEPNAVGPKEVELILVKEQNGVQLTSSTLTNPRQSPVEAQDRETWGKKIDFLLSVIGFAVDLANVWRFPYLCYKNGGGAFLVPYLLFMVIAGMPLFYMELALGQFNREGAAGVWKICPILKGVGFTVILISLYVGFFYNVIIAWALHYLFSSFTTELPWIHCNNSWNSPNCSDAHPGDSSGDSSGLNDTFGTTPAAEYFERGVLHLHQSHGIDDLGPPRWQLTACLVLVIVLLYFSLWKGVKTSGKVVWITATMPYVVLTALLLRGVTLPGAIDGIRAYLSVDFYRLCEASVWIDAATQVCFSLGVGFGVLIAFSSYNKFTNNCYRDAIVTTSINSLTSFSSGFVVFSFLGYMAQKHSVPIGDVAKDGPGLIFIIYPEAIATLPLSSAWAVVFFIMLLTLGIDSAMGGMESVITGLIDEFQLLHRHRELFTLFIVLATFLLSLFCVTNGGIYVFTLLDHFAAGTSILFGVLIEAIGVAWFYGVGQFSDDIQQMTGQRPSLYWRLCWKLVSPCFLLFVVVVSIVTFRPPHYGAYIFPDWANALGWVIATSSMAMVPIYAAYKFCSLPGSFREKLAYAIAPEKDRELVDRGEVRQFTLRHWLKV

Thromboxane A2 receptor = target: T5, Thromboxane A2 receptor (Homo sapiens, UniProt P21731); format: functional, cell-based
T5 sequence (P21731 whole entry): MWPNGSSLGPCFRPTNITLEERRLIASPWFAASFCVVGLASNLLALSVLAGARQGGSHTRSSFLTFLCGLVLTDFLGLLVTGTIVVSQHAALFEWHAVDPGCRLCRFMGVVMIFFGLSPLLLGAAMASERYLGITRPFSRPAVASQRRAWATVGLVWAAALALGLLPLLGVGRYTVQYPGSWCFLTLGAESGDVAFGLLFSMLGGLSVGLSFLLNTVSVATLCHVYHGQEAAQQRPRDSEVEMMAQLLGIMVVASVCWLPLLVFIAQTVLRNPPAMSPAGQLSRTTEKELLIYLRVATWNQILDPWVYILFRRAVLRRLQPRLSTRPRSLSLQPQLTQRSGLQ
Also: assay procedure not described here.

SMILES | AC50 [1] [µM] | AC50 [2] [µM] | AC50 [3] [µM] | AC50 [4] [µM] | AC50 [5] [µM] | AC50 [6] [µM] | AC50 [7] [µM] | AC50 [8] [µM] | AC50 [9] [µM] | AC50 [10] [µM] | AC50 (Thromboxane A2 receptor) [µM]
Cc1cc(NS(=O)(=O)c2ccc(N)cc2)nc(C)n1 [SULFISOMIDINE] | > 30 | > 30 | > 30 | > 30 | > 30 | > 30 | > 30 | 3.58 | > 30 | > 30 | > 30
CCN1CCCC1CNC(=O)c1cc(S(N)(=O)=O)ccc1OC (stereo unspecified) [SULPIRIDE] | > 30 | 7.52 | > 30 | > 30 | > 30 | > 30 | > 30 | > 30 | 11.7 | > 30 | > 30
OB1OCc2cc(F)ccc21 [TAVABOROLE] | > 30 | > 30 | > 30 | > 30 | > 30 | > 30 | 14.1 | > 30 | > 30 | > 30 | > 30
O=c1[nH]c(=O)n(C2CCCO2)cc1F (stereo unspecified) [TEGAFUR] | > 30 | > 30 | > 30 | > 30 | > 30 | > 30 | > 30 | > 30 | > 30 | > 30 | > 30
CC(C)(C)NCC(O)COc1cccc2c1SCCC2 (stereo unspecified) [TERTATOLOL] | > 30 | 6.6 | > 30 | > 30 | > 30 | > 30 | > 30 | > 30 | > 30 | > 30 | > 30
Nc1ccc(S(=O)(=O)c2cnc(N)s2)cc1 [THIAZOLSULFONE] | > 30 | > 30 | > 30 | > 30 | > 30 | > 30 | > 30 | > 30 | > 30 | 24.3 | > 30
CC(CNC(=O)c1ccccc1)C(=O)OCC(=O)[C@@]12OC(C)(C)O[C@@H]1C[C@H]1[C@@H]3CCC4=CC(=O)C=C[C@]4(C)[C@@]3(F)[C@@H](O)C[C@@]12C (stereo partly specified) [TRIAMCINOLONE BENETONIDE] | > 30 | > 30 | > 30 | > 30 | > 30 | > 30 | > 30 | > 30 | > 30 | > 30 | > 30
O=C(Nc1ccc(Cl)cc1)Nc1ccc(Cl)c(Cl)c1 [TRICLOCARBAN] | 2.44 | > 30 | > 30 | > 30 | > 30 | > 30 | 11.6 | 25.4 | > 30 | > 10 | > 30
COc1cc2c3cc1Oc1cc(ccc1O)C[C@@H]1c4c(cc(OC)c(O)c4Oc4ccc(cc4)C[C@@H]3N(C)CC2)CC[N+]1(C)C [TUBOCURARINE] | > 30 | > 30 | > 30 | > 30 | > 30 | > 30 | > 30 | > 30 | > 30 | > 30 | > 30
CCOc1ccccc1OCC1CNCCO1 (stereo unspecified) [VILOXAZINE] | > 30 | > 30 | > 30 | > 30 | > 30 | > 30 | > 30 | > 30 | > 30 | > 30 | > 30
OC[C@@H](O)[C@H](O)[C@@H](O)CO [XYLITOL] | > 30 | > 30 | > 30 | > 30 | > 30 | > 30 | > 30 | > 30 | > 30 | > 30 | > 30
